{"source": "patent US20230045685A1", "about": "“COPPER CLUSTERS, COMPOSITION, AND METHOD FOR TREATMENT OF LIVER CIRRHOSIS” (Wuhan Vast Conduct Science Foundation CO., LTD., priority 2020, published 2023)", "key": {"[1]": {"test_system": "CCl4-induced liver cirrhosis in a mouse model", "experiment": "Serum biochemical testing (ALT, AST, TBil, MAO, ALB) in CCl4-induced liver cirrhosis model mice", "assay_type": "in vivo, C57BL/6N mice", "conditions": "sorafenib 25 mg/kg intragastrically, once a day for 20 days", "text": "(§1) 70 SPF male C57BL/6N mice, 6-8 weeks old and 16-20 g body weight, were purchased from Beijing Huafukang Experimental Animal Technology Co., Ltd. (production license number: SOCK (Jing) 2019-0008). According to body weight, they were randomly divided into 7 groups (n=10): blank control group, model group, positive control group, Cu-1 low dose group, Cu-1 high dose group, Cu-2 low dose group, Cu-2 high dose group.\n(§2) Except for the blank control group, liver cirrhosis model of mice in other groups was prepared by the treatment of carbon tetrachloride (CCl4)-induction method. The modeling protocoal was as follows: (1) Each mouse was intraperitoneally injected with 10% CCl4 (diluted with olive oil) at 7 μL/g body weight, twice a week for a total of 8 weeks; mice of the blank control group were injected intraperitoneally with the same amount of olive oil solvent. (2) from the 6th week, two mice were selected and killed 48 hours after the last injection every week. The appearance of the liver was observed. After the appearance was in line with the characteristics of cirrhosis (the 8th week), the liver tissue was fixed with formalin. HE staining and Masson staining were used to evaluate the model of cirrhosis. […]"}, "[2]": {"test_system": "CCl4-induced liver cirrhosis in a mouse model", "experiment": "HE staining pathological examination of liver tissue in CCl4-induced liver cirrhosis model mice", "assay_type": "in vivo, C57BL/6N mice", "conditions": "sorafenib 25 mg/kg intragastrically, 20 days, vs model control group", "text": "as §1, §2"}}, "data": [{"smiles": "CNC(=O)c1cc(Oc2ccc(NC(=O)Nc3ccc(Cl)c(C(F)(F)F)c3)cc2)ccn1", "note": "[Sorafenib]", "values": [{"measurement": "serum ALT activity", "setting": "[1]; model group 188.5±4.9, P<0.01", "value": "42.8±5.4", "unit": "U/L"}, {"measurement": "serum AST activity", "setting": "[1]; model group 192.0±11.3, P<0.05", "value": "165.5±11.6", "unit": "U/L"}, {"measurement": "HE staining: liver pathology", "setting": "[2]", "value": "significant reduction of liver damages"}]}]}
